According to US20130254944A1, “Herbicide Tolerant Soybeans and Methods of Use” (PIONEER HI BRED INTERNATIONAL INC, priority 2012, published 2013):

Legend:
Format in all cases: in vivo
[1] = tested on: wild type soybean; assay: Greenhouse postemergence test of ALS-inhibiting herbicides, wild type soybean
Method: (§1) Soybean lines having wild type als1 & 2 genes, the Als1 mutation, the Als2 mutation, or both the Als1 and Als2 mutations were evaluated for their response to various herbicides. Two seeds from each line were planted into 4-inch pots containing Redi-Earth potting mix (Sun Gro Horticulture Canada Ltd. 52130 RR65, Seba Beach, Alberta TOE 2B0), with two replications planted for each treatment. Pots were placed in flats at 15 pots/flat, and the resulting plants were grown in a greenhouse environment supplemented with lighting (16 hr photoperiod) for the duration of the test. Selected herbicides representing the mode of action that inhibits the acetolactate synthase enzyme, also known as the acetohydroxyacid synthase enzyme, were applied postemergence to soybean when soybean plants were at the V2 growth stage, which is the stage at which the first two trifoliolate leaves were expanded.
(§2) Eleven active ingredients representing the five chemical families with herbicidal activity on the acetolactate synthase enzyme were tested. These herbicides can cause a phytotoxic response in wild type soybean plants. The five chemical families tested were sulfonylaminocarbonyltriazolinone (also known as triazolinone), imidazolinone, sulfonylurea, pyrimidinylthiobenzoate, and triazolopyrimidine. Application rates ranged from 0.5 times to eight times the currently labeled application rate for each active ingredient with spray application volume at 30 gallons/acre. The application rates tested were 0.5×, 1×, 2×, 4× and 8× the label rate for each herbicide. Herbicidal active ingredients were applied as formulated materials dispersed in water containing 0.25% nonionic surfactant (Trend® 90).
(§3) The test was evaluated by visually scoring plant phenotype 14 days after the herbicides were applied. Controls consisted of soybean plants of the same variety that received no herbicide treatments for each of all the varieties tested. Soybean response was recorded on a zero to 100 visual scale in which zero is no phytotoxic response and 100 is plant death fourteen days after the herbicides were applied. Soybean response (percent phytotoxicity) to postemergence applications of herbicides inhibiting the acetolactate synthase enzyme test results are shown in Table 1.

[2] = tested on: soybean having the Als1 mutation; assay: Greenhouse postemergence test of ALS-inhibiting herbicides, soybean with Als1 mutation; conditions: for Avg response (% phytotoxicity), Trait Als1: Table 2
Method: as §1, §2, §3
(§4) Results in Table 1 were evaluated using the isobole method for analyzing interactions. […] Here the biologically active agents that are being assessed for interaction (synergy) are gene mutations in soybean. The effectiveness of the genes in providing improved tolerance to ALS-inhibiting herbicides was assessed by applying increasing doses of herbicides to each soybean line with its mutation(s).
(§5) An isobole reduces a dose response surface in three dimensional space to a two dimensional plot by fixing a defined response level (e.g., 50% response). The isobole plot is a graph in the Cartesian plane with a straight line connecting the isoeffective rates of the individual components of the combination. This straight line represents expected responses for zero interactive combinations. The isoeffective rate used to create the isobole is often the EC50, the rate estimated to elicit 50% response, but other ECx values can be used. Since the isobole method is based on the potency of the components of the combination, an experimental design testing a range of rates expected to elicit the full range of responses (e.g., 0 to maximum response) is best. (Ferry et al. (2005) 2005 Conference on Applied Statistics in Agriculture Proceedings pp 33-50, Manhattan, Kans., Kansas State Univ.; Green and Streibig (1993) Herbicide Mixtures, pp 117-134 in Herbicide Bioassays, Streibig and Hudsk Eds, CRC, Boca Raton, Fla.).
(§6) Loglogistic dose response curves were fit to percent phytotoxicity response data using log 10 of dose (McCullagh and Nelder (1989) Generalized Linear Models, Chapman & Hall, London). Curves were fit using the logit link with normal errors. […]

[3] = tested on: soybean having the Als2 mutation; assay: Greenhouse postemergence test of ALS-inhibiting herbicides, soybean with Als2 mutation; conditions: for Avg response (% phytotoxicity), Trait Als2: Table 2
Method: as §1, §2, §3, §4, §5, §6

[4] = tested on: soybean having both the Als1 and Als2 mutations; assay: Greenhouse postemergence test of ALS-inhibiting herbicides and isobole analysis, soybean with Als1 and Als2 mutations; conditions: for Avg response (% phytotoxicity), Trait Als1 + Als2: Table 2
Method: as §1, §2, §3, §4, §5, §6

[5] = 8.75 g ai/ha postemergence at V2, scored 14 days after application
[6] = 17.5 g ai/ha postemergence at V2, scored 14 days after application
[7] = 35 g ai/ha postemergence at V2, scored 14 days after application
[8] = 70 g ai/ha postemergence at V2, scored 14 days after application
[9] = 140 g ai/ha postemergence at V2, scored 14 days after application
[10] = rate of herbicide estimated to cause 50% phytotoxic response, loglogistic fit

For `CC(C)C1(C)N=C(c2ncccc2C(=O)O)NC1=O` (centres unmarked) [Imazapyr], the “Soybean response (percent phytotoxicity), Wild type” value [1, 5] was 10%, the “Soybean response (percent phytotoxicity), Wild type” value [1, 6] was 40% and the “Soybean response (percent phytotoxicity), Wild type” value [1, 7] was 75%. The “Soybean response (percent phytotoxicity), Wild type” value [1, 8] was 90%, the “Soybean response (percent phytotoxicity), Wild type” value [1, 9] was 98% and the “Soybean response (percent phytotoxicity), Als1” value [2, 5] was 0%. The “Avg response (% phytotoxicity), Trait Als1” value ([2]; 8.75 g ai/ha) was 0%, the “Soybean response (percent phytotoxicity), Als1” value [2, 6] was 10% and the “Avg response (% phytotoxicity), Trait Als1” value ([2]; 17.5 g ai/ha) was 10%. The “Soybean response (percent phytotoxicity), Als1” value [2, 7] was 45%, the “Avg response (% phytotoxicity), Trait Als1” value ([2]; 35 g ai/ha) was 45% and the “Soybean response (percent phytotoxicity), Als1” value [2, 8] was 80%. For the same compound, the “Avg response (% phytotoxicity), Trait Als1” value ([2]; 70 g ai/ha) was 80%, the “Soybean response (percent phytotoxicity), Als1” value [2, 9] was 98% and the “Avg response (% phytotoxicity), Trait Als1” value ([2]; 140 g ai/ha) was 98%. The “EC50, Als1” value [2, 10] was 38.86 g ai/ha, the “Soybean response (percent phytotoxicity), Als2” value [3, 5] was 5% and the “Avg response (% phytotoxicity), Trait Als2” value ([3]; 8.75 g ai/ha) was 5%. For the same compound, the “Soybean response (percent phytotoxicity), Als2” value [3, 6] was 20%, the “Avg response (% phytotoxicity), Trait Als2” value ([3]; 17.5 g ai/ha) was 20% and the “Soybean response (percent phytotoxicity), Als2” value [3, 7] was 25%. For the same compound, the “Avg response (% phytotoxicity), Trait Als2” value ([3]; 35 g ai/ha) was 25%, the “Soybean response (percent phytotoxicity), Als2” value [3, 8] was 50% and the “Avg response (% phytotoxicity), Trait Als2” value ([3]; 70 g ai/ha) was 50%. For the same compound, the “Soybean response (percent phytotoxicity), Als2” value [3, 9] was 55%, the “Avg response (% phytotoxicity), Trait Als2” value ([3]; 140 g ai/ha) was 55% and the “EC50, Als2” value [3, 10] was 93.91 g ai/ha. The “Soybean response (percent phytotoxicity), Als1 + Als2” value [4, 5] was 0%, the “Avg response (% phytotoxicity), Trait Als1 + Als2” value ([4]; 8.75 g ai/ha) was 0% and the “Soybean response (percent phytotoxicity), Als1 + Als2” value [4, 6] was 0%. For the same compound, the “Avg response (% phytotoxicity), Trait Als1 + Als2” value ([4]; 17.5 g ai/ha) was 0%, the “Soybean response (percent phytotoxicity), Als1 + Als2” value [4, 7] was 0% and the “Avg response (% phytotoxicity), Trait Als1 + Als2” value ([4]; 35 g ai/ha) was 0%. The “Soybean response (percent phytotoxicity), Als1 + Als2” value [4, 8] was 40%, the “Avg response (% phytotoxicity), Trait Als1 + Als2” value ([4]; 70 g ai/ha) was 40% and the “Soybean response (percent phytotoxicity), Als1 + Als2” value [4, 9] was 55%. The “Avg response (% phytotoxicity), Trait Als1 + Als2” value ([4]; 140 g ai/ha) was 55% and the “EC50, Als1 + Als2” value [4, 10] was 112.81 g ai/ha.
